pEC50, pIC50, pKd: −log10 of the molar value.
Experiments:
[1] = PROTAC activity at VHL/PRC2 in human HeLa cells assessed as induction of PRC2 degradation incubated for 24 hrs by Western blot analysis; format: cell-based
HeLa = assay: PROTAC activity at VHL/PRC2 in human HeLa cells assessed as induction of PRC2 degradation incubated for 24 hrs by Western blot analysis relative to control; format: cell-based
[2] = biological target: von Hippel-Lindau disease tumor suppressor/Mitogen-activated protein kinase 14 (Homo sapiens) (UniProt Q16539+P40337); assay: PROTAC activity at VHL/p38alpha in human MDA-MB-231 cells assessed as induction of p38alpha degradation incubated for 24 hrs by Western blot analysis relative to control; format: cell-based
[3] = biological target: T1, von Hippel-Lindau disease tumor suppressor/Mitogen-activated protein kinase 14 (Homo sapiens, UniProt P40337+Q16539); assay: PROTAC activity at VHL/p38alpha in human MDA-MB-231 cells assessed as induction of p38alpha degradation incubated for 24 hrs by Western blot analysis; format: cell-based
[4] = biological target: T1, von Hippel-Lindau disease tumor suppressor/Mitogen-activated protein kinase 14; assay: PROTAC activity at VHL/p38alpha (unknown origin) assessed as dissociation constant by competitive binding assay
Protein cereblon-NS3 = Protein cereblon-NS3 (Hepacivirus hominis, UniProt A3EZJ3+Q96SW2); assay: PROTAC activity at CRBN/NS3 of HCV assessed as induction of NS3-eGFP-2A-mCherry degradation incubated for 4 hrs by flow cytometry
[5] = biological target: T2, von Hippel-Lindau disease tumor suppressor/Tyrosine-protein kinase ABL1/Breakpoint cluster region protein (Homo sapiens, UniProt P00519+P11274+P40337); assay: PROTAC activity at VHL/BCR-Abl (unknown origin) assessed as induction of BCR-Abl degradation by cell based assay relative to control
[6] = biological target: T2, von Hippel-Lindau disease tumor suppressor/Tyrosine-protein kinase ABL1/Breakpoint cluster region protein; assay: PROTAC activity at VHL/BCR-Abl (unknown origin) assessed as induction of BCR-Abl degradation by cell based assay
[7] = biological target: T3, Protein cereblon/Tyrosine-protein kinase BTK (Homo sapiens, UniProt Q06187+Q96SW2); assay: PROTAC activity at CRBN/BTK in human MINO cells assessed as reduction in BTK level incubated for 24 hrs by Western blot analysis; format: cell-based
Target sequence in this assay (Q06187 whole entry): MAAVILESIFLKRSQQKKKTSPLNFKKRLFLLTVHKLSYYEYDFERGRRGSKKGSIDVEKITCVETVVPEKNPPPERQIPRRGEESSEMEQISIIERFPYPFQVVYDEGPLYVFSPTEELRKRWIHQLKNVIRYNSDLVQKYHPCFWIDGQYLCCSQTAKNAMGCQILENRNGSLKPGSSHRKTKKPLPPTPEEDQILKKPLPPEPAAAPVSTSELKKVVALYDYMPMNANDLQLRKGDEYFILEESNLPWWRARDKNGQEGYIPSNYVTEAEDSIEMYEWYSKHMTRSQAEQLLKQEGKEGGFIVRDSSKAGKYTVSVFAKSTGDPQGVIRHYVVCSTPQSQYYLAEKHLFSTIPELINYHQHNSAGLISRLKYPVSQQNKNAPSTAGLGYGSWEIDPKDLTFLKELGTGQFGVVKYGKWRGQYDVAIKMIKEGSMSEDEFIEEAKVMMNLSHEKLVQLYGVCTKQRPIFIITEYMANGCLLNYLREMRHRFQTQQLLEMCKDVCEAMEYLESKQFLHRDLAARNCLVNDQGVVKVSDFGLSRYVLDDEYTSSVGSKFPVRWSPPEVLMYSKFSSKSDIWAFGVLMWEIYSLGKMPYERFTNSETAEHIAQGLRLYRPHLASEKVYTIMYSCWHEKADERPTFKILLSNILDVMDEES
Target sequence in this assay (Q96SW2 whole entry): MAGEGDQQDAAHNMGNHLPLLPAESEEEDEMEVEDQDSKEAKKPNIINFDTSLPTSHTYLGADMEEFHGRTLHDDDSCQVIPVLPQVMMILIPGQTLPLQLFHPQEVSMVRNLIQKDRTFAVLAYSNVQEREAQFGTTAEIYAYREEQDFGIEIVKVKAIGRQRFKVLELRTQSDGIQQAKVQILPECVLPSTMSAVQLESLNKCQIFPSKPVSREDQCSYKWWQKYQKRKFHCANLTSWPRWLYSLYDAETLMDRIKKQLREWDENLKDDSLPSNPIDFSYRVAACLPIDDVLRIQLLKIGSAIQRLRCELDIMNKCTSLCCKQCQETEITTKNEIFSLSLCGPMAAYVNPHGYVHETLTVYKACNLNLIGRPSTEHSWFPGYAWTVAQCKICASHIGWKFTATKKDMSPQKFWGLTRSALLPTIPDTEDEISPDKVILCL

[8] = biological target: T3, Protein cereblon/Tyrosine-protein kinase BTK; assay: PROTAC activity at CRBN/BTK in human MINO cells assessed as reduction in BTK level incubated for 24 hrs by Western blot analysis relative to control; format: cell-based
Target sequence in this assay (Q06187 2-659 limits assumed): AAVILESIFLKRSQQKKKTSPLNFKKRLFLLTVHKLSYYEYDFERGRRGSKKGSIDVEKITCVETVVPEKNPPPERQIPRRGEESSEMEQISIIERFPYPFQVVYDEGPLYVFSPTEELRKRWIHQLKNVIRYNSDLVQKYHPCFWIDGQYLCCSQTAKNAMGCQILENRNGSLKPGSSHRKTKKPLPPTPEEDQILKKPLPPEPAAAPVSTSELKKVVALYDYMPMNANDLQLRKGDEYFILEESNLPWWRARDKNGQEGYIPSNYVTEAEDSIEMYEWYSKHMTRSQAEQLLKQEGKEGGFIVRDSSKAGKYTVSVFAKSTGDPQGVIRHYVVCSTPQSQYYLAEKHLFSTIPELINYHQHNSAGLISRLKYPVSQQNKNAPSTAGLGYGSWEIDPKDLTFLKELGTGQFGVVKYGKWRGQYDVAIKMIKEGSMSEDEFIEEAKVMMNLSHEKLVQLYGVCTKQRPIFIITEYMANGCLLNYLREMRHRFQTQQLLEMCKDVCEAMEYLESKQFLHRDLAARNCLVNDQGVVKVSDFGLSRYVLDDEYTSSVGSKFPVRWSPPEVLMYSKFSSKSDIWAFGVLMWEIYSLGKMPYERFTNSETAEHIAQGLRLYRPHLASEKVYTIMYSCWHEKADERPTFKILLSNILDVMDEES
Target sequence in this assay (Q96SW2 whole entry partner): as the sequence (Q96SW2 whole entry) above

[9] = biological target: T4, Protein cereblon/Indoleamine 2,3-dioxygenase 1 (Homo sapiens, UniProt P14902+Q96SW2); assay: PROTAC activity at CRBN/IDO1 in human HeLa cells assessed as induction of IDO1 degradation incubated for 24 hrs by immunoblot analysis; format: cell-based
[10] = biological target: T4, Protein cereblon/Indoleamine 2,3-dioxygenase 1; assay: PROTAC activity at CRBN/IDO1 in human HeLa cells assessed as induction of IDO1 degradation incubated for 24 hrs by immunoblot analysis relative to control; format: cell-based
[11] = biological target: BRD4/E3 ubiquitin-protein ligase Mdm2 (Homo sapiens, UniProt O60885+Q00987); assay: PROTAC activity at MDM2/BRD4 in human HCT-116 cells assessed as induction of BRD4 degradation incubated for 24 hrs by immunoblot analysis; format: cell-based
[12] = biological target: BRD4/E3 ubiquitin-protein ligase Mdm2 (Homo sapiens) (UniProt Q00987+O60885); assay: PROTAC activity at MDM2/BRD4 in human HCT-116 cells assessed as induction of BRD4 degradation incubated for 24 hrs by immunoblot analysis relative to control; format: cell-based
[13] = biological target: von Hippel-Lindau disease tumor suppressor/Barrier-to-autointegration factor (Homo sapiens, UniProt O75531+P40337); assay: PROTAC activity at VHL/BAF in human MV4-11 cells assessed as induction of BAF degradation incubated for 18 hrs by Western blot analysis; format: cell-based
[14] = biological target: von Hippel-Lindau disease tumor suppressor/Barrier-to-autointegration factor (Homo sapiens) (UniProt P40337+O75531); assay: PROTAC activity at VHL/BAF in human MV4-11 cells assessed as induction of BAF degradation incubated for 18 hrs by Western blot analysis relative to control; format: cell-based
[15] = biological target: IAP-Tyrosine-protein kinase BTK (Homo sapiens, UniProt P98170+Q06187+Q13489+Q13490); assay: PROTAC activity at IAP/BTK in human THP-1 cells assessed as reduction in BTK level incubated for 16 hrs by immunoblot analysis; format: cell-based
[16] = biological target: T5, Protein cereblon/Tyrosine-protein kinase BTK (Homo sapiens, UniProt Q06187+Q96SW2, C481S); assay: PROTAC activity at CRBN/BTK C481S mutant transfected in human HBL1 cells assessed as induction of BTK C481S degradation incubated for 36 hrs by Western blot analysis; format: cell-based
[17] = biological target: Protein cereblon/Adenosine receptor A1 (Homo sapiens) (UniProt P30542+Q96SW2); assay: PROTAC activity at CRBN/A1AR in human HEK293 cells assessed as induction of A1AR degradation at 10 micromol/L incubated for 12 hrs by Western blot analysis relative to control; format: cell-based; details: dose 10.0 µmol/L
[18] = biological target: Alpha-1A adrenergic receptor (Homo sapiens, UniProt P35348); assay: PROTAC activity at CRBN/A1AR in human HEK293 cells assessed as induction of A1AR degradation incubated for 12 hrs by Western blot analysis; format: cell-based
PC-3 = assay: Antiproliferative activity against human PC-3 cells assessed as inhibition of cell proliferation incubated for 48 hrs by CCK8 assay; format: functional, cell-based; details: PC-3, 48 h
[19] = biological target: T6, Protein cereblon/Retinal rod rhodopsin-sensitive cGMP 3',5'-cyclic phosphodiesterase subunit delta (Homo sapiens, UniProt O43924+Q96SW2); assay: PROTAC activity at CRBN/PDEdelta in human PancTu-I assessed as induction of PDEdelta degradation incubated for 24 hrs by immunoblot analysis; format: cell-based
[20] = biological target: T6, Protein cereblon/Retinal rod rhodopsin-sensitive cGMP 3',5'-cyclic phosphodiesterase subunit delta; assay: PROTAC activity at CRBN/PDEdelta in human PancTu-I assessed as induction of PDEdelta degradation incubated for 24 hrs by immunoblot analysis relative to control; format: cell-based
[21] = biological target: T5, Protein cereblon/Tyrosine-protein kinase BTK; assay: PROTAC activity at CRBN/BTK C481S mutant transfected in human HeLa cells assessed as induction of BTK C481S degradation incubated for 4 days by immunoblot analysis; format: cell-based
[22] = biological target: von Hippel-Lindau disease tumor suppressor/Focal adhesion kinase 1 (Homo sapiens, UniProt P40337+Q05397); assay: PROTAC activity at VHL/FAK in human PC-3 cells assessed as induction of FAK degradation incubated for 24 hrs by immunoblot analysis; format: cell-based
[23] = biological target: von Hippel-Lindau disease tumor suppressor/Focal adhesion kinase 1 (Homo sapiens) (UniProt Q05397+P40337); assay: PROTAC activity at VHL/FAK in human PC-3 cells assessed as induction of FAK degradation incubated for 24 hrs by immunoblot analysis relative to control; format: cell-based
[24] = biological target: von Hippel-Lindau disease tumor suppressor/Cyclin-dependent kinase 6 (Homo sapiens, UniProt P40337+Q00534); assay: PROTAC activity at VHL/CDK6 in human MM1.S cells assessed as induction of CDK6 degradation incubated for 16 hrs by Western blot analysis; format: cell-based
[25] = biological target: von Hippel-Lindau disease tumor suppressor/Cyclin-dependent kinase 6 (Homo sapiens) (UniProt Q00534+P40337); assay: PROTAC activity at VHL/CDK6 in human MM1.S cells assessed as induction of CDK6 degradation at 0.1 to 1 uM incubated for 16 hrs by Western blot analysis relative to control; format: cell-based; details: dose 0.1-1 µM
[26] = biological target: von Hippel-Lindau disease tumor suppressor/Cyclin-dependent kinase 4 (Homo sapiens, UniProt P11802+P40337); assay: PROTAC activity at VHL/CDK4 in human MM1.S cells assessed as induction of […] degradation incubated for 16 hrs by Western blot analysis; format: cell-based

Protein cereblon-NS3, sequence (A3EZJ3 whole entry): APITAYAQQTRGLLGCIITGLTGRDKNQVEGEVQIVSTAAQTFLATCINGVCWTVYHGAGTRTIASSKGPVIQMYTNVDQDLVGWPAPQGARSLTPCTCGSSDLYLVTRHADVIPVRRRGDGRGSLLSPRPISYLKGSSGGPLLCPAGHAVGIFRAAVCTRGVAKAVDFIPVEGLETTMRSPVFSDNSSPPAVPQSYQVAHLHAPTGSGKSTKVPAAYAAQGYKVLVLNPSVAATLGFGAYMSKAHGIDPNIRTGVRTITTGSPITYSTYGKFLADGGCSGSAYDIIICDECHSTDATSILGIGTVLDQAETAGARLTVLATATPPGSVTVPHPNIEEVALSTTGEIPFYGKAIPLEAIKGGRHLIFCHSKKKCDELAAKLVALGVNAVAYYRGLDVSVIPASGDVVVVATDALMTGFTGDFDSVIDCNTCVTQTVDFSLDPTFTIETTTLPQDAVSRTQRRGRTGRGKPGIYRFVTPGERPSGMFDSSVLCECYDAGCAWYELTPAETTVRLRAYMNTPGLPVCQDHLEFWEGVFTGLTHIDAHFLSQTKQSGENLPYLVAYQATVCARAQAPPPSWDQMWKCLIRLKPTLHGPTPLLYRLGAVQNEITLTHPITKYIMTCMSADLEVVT
Protein cereblon-NS3, sequence (Q96SW2 whole entry): as the sequence (Q96SW2 whole entry) above
T5 sequence (Q06187 2-659 C481S limits assumed, stated change not applied): as the sequence (Q06187 2-659 limits assumed) above, with C480S counted along it
T5 sequence (Q96SW2 whole entry, stated change not applied): as the sequence (Q96SW2 whole entry) above
T1 sequence (Q16539 whole entry): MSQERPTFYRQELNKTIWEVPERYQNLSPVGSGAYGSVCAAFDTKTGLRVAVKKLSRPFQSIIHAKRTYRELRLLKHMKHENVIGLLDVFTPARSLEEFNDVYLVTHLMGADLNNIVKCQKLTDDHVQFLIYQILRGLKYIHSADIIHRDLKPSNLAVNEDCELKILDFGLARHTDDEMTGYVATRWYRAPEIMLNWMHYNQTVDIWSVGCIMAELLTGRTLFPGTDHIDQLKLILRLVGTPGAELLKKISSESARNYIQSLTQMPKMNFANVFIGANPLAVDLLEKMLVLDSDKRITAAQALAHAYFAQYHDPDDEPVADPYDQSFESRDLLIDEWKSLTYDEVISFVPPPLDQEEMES
T1 sequence (P40337 whole entry): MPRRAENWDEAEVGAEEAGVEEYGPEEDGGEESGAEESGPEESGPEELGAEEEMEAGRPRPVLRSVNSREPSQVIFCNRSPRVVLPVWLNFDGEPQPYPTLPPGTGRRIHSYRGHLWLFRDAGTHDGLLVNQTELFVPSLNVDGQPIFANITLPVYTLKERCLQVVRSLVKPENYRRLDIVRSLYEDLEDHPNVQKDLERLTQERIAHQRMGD

Cc1ncsc1-c1ccc(CNC(=O)[C@@H]2C[C@@H](O)CN2C(=O)[C@@H](NC(=O)CCCNC(=O)c2ccc(-c3cnc(NCc4ccco4)n4cnnc34)cc2)C(C)(C)C)cc1
pEC50 [1]: > 6.15
Emax (HeLa): > 80%

COc1cc2c(Oc3ccc(NC(=O)C4(C(=O)Nc5ccc(F)cc5)CC4)cc3F)cccc2cc1OCCCOCCCOCCC(=O)N[C@H](C(=O)N1C[C@H](O)C[C@H]1C(=O)NCc1ccc(-c2scnc2C)cc1)C(C)(C)C
Emax [2]: 91%
pEC50 [3]: 6.68
pKd [4]: 4.96

CCC[C@H](NC(=O)[C@@H]1[C@H]2CCC[C@H]2CN1C(=O)[C@@H](NC(=O)[C@@H](NC(=O)c1cnc(C(=O)NCCOCCOCCNc2cccc3c2C(=O)N(C2CCC(=O)NC2=O)C3=O)cn1)C1CCCCC1)C(C)(C)C)C(=O)C(=O)NC1CC1 (stereo partly specified)
pEC50 (Protein cereblon-NS3): 6.31

Cc1ncsc1-c1ccc(CNC(=O)[C@@H]2C[C@@H](O)CN2C(=O)[C@@H](NC(=O)COCCOc2ccc(-c3cc(Nc4ccc(OC(F)(F)F)cc4)ncn3)cc2)C(C)(C)C)cc1
Emax [5]: > 95%
pEC50 [6]: 6.47

CC(C)(/C=C(\C#N)C(=O)N1CCC[C@H](n2nc(-c3ccc(Oc4ccccc4)cc3)c3c(N)ncnc32)C1)CCCOCCOCCOCCOCCOc1cccc2c1C(=O)N(C1CCC(=O)NC1=O)C2=O (stereo partly specified)
pEC50 [7]: 8.00
Emax [8]: 90%

O=C1CCC(N2C(=O)c3cccc(NCCOCCOCCOCCOCCOCCOCCOCCNCCNc4nonc4/C(=N/O)Nc4ccc(F)c(Br)c4)c3C2=O)C(=O)N1 (stereo unspecified)
pEC50 [9]: 5.55
Emax [10]: 93%

COc1cc(C(=O)NCCOCCOCCOCCNC(=O)C[C@@H]2N=C(c3ccc(Cl)cc3)c3c(sc(C)c3C)-n3c(C)nnc32)ccc1NC(=O)[C@@H]1N[C@@H](CC(C)(C)C)[C@](C#N)(c2ccc(Cl)cc2F)[C@H]1c1cccc(Cl)c1F
pEC50 [11]: 7.49
Emax [12]: 98%

CCC[C@H](NC(=O)[C@@H]1[C@H]2CCC[C@H]2CN1C(=O)[C@@H](NC(=O)[C@@H](NC(=O)c1cnc(C(=O)NCCCCCCNc2cccc3c2CN(C2CCC(=O)NC2=O)C3=O)cn1)C1CCCCC1)C(C)(C)C)C(=O)C(=O)NC1CC1 (stereo partly specified)
pEC50 (Protein cereblon-NS3): 6.17

Cc1ncsc1-c1ccc(CNC(=O)[C@@H]2C[C@@H](O)CN2C(=O)[C@@H](NC(=O)C2(F)CC2)C(C)(C)C)c(OCCOc2ccc(CN3CCN(c4cc(-c5ccccc5O)nnc4N)CC3)cc2)c1
pEC50 [13]: > 7.49
Emax [14]: > 65%

CN[C@@H](C)C(=O)N[C@H](C(=O)N1C[C@@H](NC(=O)COCCOCCOCCOCCN2CCN(CCCC(=O)N3CCC[C@@H](n4nc(-c5ccc(Oc6ccccc6)cc5)c5c(N)ncnc54)C3)CC2)C[C@H]1C(=O)N[C@@H]1CCCc2ccccc21)C1CCCCC1
pEC50 [15]: 6.70

CCC[C@H](NC(=O)[C@@H]1[C@H]2CCC[C@H]2CN1C(=O)[C@@H](NC(=O)[C@@H](NC(=O)c1cnc(C(=O)NCCOCCOCCOc2cc3c4c(cccc4c2)C(=O)N(C2CCC(=O)NC2=O)C3=O)cn1)C1CCCCC1)C(C)(C)C)C(=O)C(=O)NC1CC1 (stereo partly specified)
pEC50 (Protein cereblon-NS3): 7.30

Nc1ncnc2c1c(-c1ccc(Oc3ccccc3)cc1)nn2[C@@H]1CCCN(C(=O)c2cn(CCOCCOCCOCCCc3cccc4c3CN(C3CCC(=O)NC3=O)C4=O)nn2)C1 (stereo partly specified)
pEC50 [16]: 7.54

COc1cc2nc(N3CCN(C(=O)c4cn(CCOCCOCCOCC(=O)Nc5cccc6c5C(=O)N(C5CCC(=O)NC5=O)C6=O)nn4)CC3)nc(N)c2cc1OC (stereo unspecified)
Emax [17]: 94%
pEC50 [18]: 5.54
pIC50 (PC-3): 5.21

O=C1CCC(N2C(=O)c3cccc(NCCOCCOCCOCCOCCNC(=O)c4ccc(CN(CC5CCNCC5)S(=O)(=O)c5ccc(S(=O)(=O)N(Cc6ccc(Cl)cc6)C6CCCC6)cc5)cc4)c3C2=O)C(=O)N1 (stereo unspecified)
pEC50 [19]: 7.32
Emax [20]: 85%

Nc1ncnc2c1c(-c1ccc(Oc3ccccc3)cc1)nn2[C@H]1CCCN(C(=O)/C=C/CCCCOCCOCCOCCOCCOc2cccc3c2C(=O)N(C2CCC(=O)NC2=O)C3=O)C1 (stereo partly specified)
pEC50 [7]: 8.00
Emax [8]: 90%

COc1cc2nc(N3CCN(C(=O)c4ccco4)CC3)nc(N)c2cc1OC [PRAZOSIN]
pIC50 (PC-3): 4.93

Nc1ncnc2c1c(-c1ccc(Oc3ccccc3)cc1)nn2[C@@H]1CCCN(C(=O)c2cn(CCOCCOCCOCCNc3cccc4c3C(=O)N(C3CCC(=O)NC3=O)C4=O)nn2)C1 (stereo partly specified)
pEC50 [21]: 7.52

Nc1ncnc2c1c(-c1ccc(Oc3ccccc3)cc1)nn2[C@H]1CCCN(C(=O)CCCCCCOCCOCCOCCOCCOc2cccc3c2C(=O)N(C2CCC(=O)NC2=O)C3=O)C1 (stereo partly specified)
pEC50 [7]: 8.66
Emax [8]: 97%

Cc1ncsc1-c1ccc(CNC(=O)[C@@H]2C[C@@H](O)CN2C(=O)[C@@H](NC(=O)CCOCCOc2ccc(Nc3ncc(C(F)(F)F)c(NCc4cccc(N(C)S(C)(=O)=O)c4)n3)cc2)C(C)(C)C)cc1
pEC50 [22]: 8.52
Emax [23]: 99%

CC(=O)c1c(C)c2cnc(Nc3ccc(N4CCN(CCOCCOCCOc5cc(-c6scnc6C)ccc5CNC(=O)[C@H]5C[C@H](O)CN5C(=O)[C@@H](NC(=O)C5(F)CC5)C(C)(C)C)CC4)cn3)nc2n(C2CCCC2)c1=O
pEC50 [24]: 8.29
Emax [25]: > 95%
pEC50 [26]: 7.70
